Measurements published in US7642283B2, “Mitochrondrial permeability transition pore affinity labels and modulators” (Hoffmann-La Roche Inc., priority 2003, dated 2010).

Columns and labels:
[1] = target: T1, MPTP (Rattus norvegicus, UniProt Q9Z2L0); test: Ca2+-retention capacity of rat brain mitochondria (Calcium Green-5N); format: biochemical; settings: Ca2+ pulses, rat brain mitochondria
T1 construct: other: n=2; glutamate/malate; other: glutamate/malate; 20 min; mean±SEM; unit not given; other: 300 nM; relieved by 50 μM Ub5
T1 sequence (Q9Z2L0 2-283): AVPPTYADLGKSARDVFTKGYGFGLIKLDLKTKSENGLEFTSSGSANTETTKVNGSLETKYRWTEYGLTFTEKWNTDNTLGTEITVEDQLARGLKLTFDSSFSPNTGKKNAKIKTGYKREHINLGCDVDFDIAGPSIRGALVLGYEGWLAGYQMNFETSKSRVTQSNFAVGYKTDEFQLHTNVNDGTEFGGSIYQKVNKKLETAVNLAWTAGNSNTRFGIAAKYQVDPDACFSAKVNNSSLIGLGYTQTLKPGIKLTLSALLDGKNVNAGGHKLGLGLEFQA
Experimental: FIG. 4: (A) Effect of Spiro[cyclopentane-1,5′-[5H]dibenzo[a,d]cyclohepten]-2-one,10′,11′-dihydro-3-methylene- and CsA on Ca^2+-retention capacity of rat brain mitochondria. The incubation medium contained 0.2 M sucrose, 10 mM Tris-Mops, pH 7.4, 1 mM Pi-Tris, 5 μM EGTA and 5 mM glutamate/2.5 mM malate, buffered to pH 7.4 with Tris, containing 0.01% (w/v) bovine serum albumin and 1 μM Calcium Green-5N. The final volume was 2.5 ml. Trace (a) control, (b) 1 μM CsA, (c) 1 μM Spiro[cyclopentane-1,5′-[5H]dibenzo[a,d]cyclohepten]-2-one,10′,11′-dihydro-3-methylene- and (d) 1 μM CsA plus 1 μM Spiro[cyclopentane-1,5′-[5H]dibenzo[a,d]cyclohepten]-2-one,10′,11′-dihydro-3-methylene-. Each fluorescence spike corresponds to addition of 5 μM Ca^2+. (B) Comparison of Ca^2+-retention capacity in liver (a) and brain mitochondria (b).
Effect of Spiro[cyclopentane-1,5′-[5H]dibenzo[a,d]cyclohepten]-2-one,10′,11′-dihydro-3-methylene- and CsA on Ca^2+-retention capacity of rat brain mitochondria (FIG. 4). Measurement of extramitochondrial Ca^2+ was determined using a Perkin-Elmer LS-50B fluorimeter controlled by the FL WinLab computer program. […] The final volume was 2.5 ml and the cuvette was thermostated at 25° C. Brain mitochondria were then subjected to a train of 5 μM Ca^2+ additions (˜150 nmol mg protein^−1). Extramitochondrial Ca^2+ was monitored at excitation/emission wavelengths of 505-535. […] The Ca^2+-retention capacity in liver (a) and brain mitochondria (b) were also compared (FIG. 4B).
The effect of Spiro[cyclopentane-1,5′-[5H]dibenzo[a,d]cyclohepten]-2-one,10′,11′-dihydro-3-methylene- at inhibiting MPTP was also investigated in mitochondria isolated from rat forebrain. […] Due to the difficulties mentioned above, the effect of Spiro[cyclopentane-1,5′-[5H]dibenzo[a,d]cyclohepten]-2-one,10′,11′-dihydro-3-methylene- on MPTP in brain mitochondria was more accurately investigated by subjecting mitochondria isolated from rat forebrain to a series of Ca^2+ pulses (5 μM, ˜150 nmol mg protein^−1) and by monitoring extramitochondrial Ca^2+ or using fluororescent probes.

[2] = target: T2, VDAC1 (Rattus norvegicus, UniProt Q9Z2L0); test: Affinity labeling of rat mitochondria with the tritiated spiro compound, SDS-PAGE and fluorography; format: binding
T2 construct: from tissue; host or cells: Percoll-purified rat brain and liver mitochondria
T2 sequence (Q9Z2L0 whole entry): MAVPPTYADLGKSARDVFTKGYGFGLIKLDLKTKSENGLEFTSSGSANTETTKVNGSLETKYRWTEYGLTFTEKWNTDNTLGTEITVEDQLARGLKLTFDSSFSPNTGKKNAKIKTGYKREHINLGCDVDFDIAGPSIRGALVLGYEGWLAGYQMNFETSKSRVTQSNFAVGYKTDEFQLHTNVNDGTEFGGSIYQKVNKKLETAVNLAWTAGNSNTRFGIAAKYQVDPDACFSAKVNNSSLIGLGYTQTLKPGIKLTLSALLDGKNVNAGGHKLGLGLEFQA
Experimental: FIG. 6: Affinity-labeling of isolated rat brain (A) and liver (B) mitochondria. Mitochondrial preparations were incubated in the presence of 10 nM Spiro[cyclopentane-1,5′-[5H]dibenzo[a,d]cyclohepten]-2-one,10′,11′-t2-10′,11′-dihydro-3-methylene- for 15 min at 25° C. in presence or absence of various concentrations of Spiro[cyclopentane-1,5′-[5H]dibenzo[a,d]cyclohepten]-2-one,10′,11′-dihydro-3-methylene-(unlabeled). Samples were submitted to SDS-PAGE (see Experimental Procedures section for details) and fluorography. The fluorograms of the gels are shown. The molecular mass scale (kDa) is shown in the ordinate.
(§1) FIG. 8: (A) Effect of monobromobimano (MBBM) and phenylarsino oxide (PhAO) on VDAC1 labeling by Spiro[cyclopentane-1,5′-[5H]dibenzo[a,d]cyclohepten]-2-one,10′,11′-t2-10′,11′-dihydro-3-methylene- in rat brain mitochondria. Experimental conditions were as in the legend to FIG. 5. (B) Effect of various MPTP inhibitors, atractyloside (ATR) and DIDS on VDAC1 labeling by Spiro[cyclopentane-1,5′-[5H]dibenzo[a,d]cyclohepten]-2-one,10′,11′-t2-10′,11′-dihydro-3-methylene- in rat brain mitochondria. Mitochondria were exposed to DIDS for 5 min before rinsing for removal of the free agent and labeling with Spiro[cyclopentane-1,5′-[5H]dibenzo[a,d]cyclohepten]-2-one,10′,11′-t2-10′,11′-dihydro-3-methylene.
Percoll purified mitochondria (˜30 μg protein per sample) were incubated in the presence of 10 nM Spiro[cyclopentane-1,5′-[5H]dibenzo[a,d]cyclohepten]-2-one,10′,11′-t2-10′,11′-dihydro-3-methylene- in a final volume of 200 μl. After incubation for 15 min at 25° C., samples were centrifuged at 25000×g and the mitochondrial pellet rinsed twice with buffer. Samples were then solubilized in sample buffer containing β-mercaptoethanol (1 h at 37° C.) and subjected to SDS-polyacrylamide gel-electrophoresis (SDS-PAGE) on Tris-glycine Novex pre-cast mini-gels (12% monomer concentration, Invitrogen BV, The Netherlands). After Coomassie Blue staining, gels were processed for fluorography by soaking in Amplify™ (Amersham Biosciences), drying and exposing to X-ray BioMax MS film with BioMax MS intensifying screen (Kodak) at −80° C. for the appropriate time.
as §1, with “Effect” for “FIG. 8: (A) Effect”, “monobromobimano” for “monobromobimano (MBBM)”, “oxide” for “oxide (PhAO)”, “Example 12 (FIG. 8A).” for “the legend to FIG. 5. (B)”, “Spiro[cyclopentane-1,5′-[5H]dibenzo[a,d]cyclohepten]-2-one,10′,11′-t2-10′,11′-dihydro-3-methylene (FIG. 8B).” for “Spiro[cyclopentane-1,5′-[5H]dibenzo[a,d]cyclohepten]-2-one,10′,11′-t2-10′,11′-dihydro-3-methylene.”

[3] = test system: MPTP; test: Ca2+-induced swelling (MPTP) in rat liver mitochondria energised with succinate; format: biochemical; settings: as E1, in the presence of 1 μg/ml oligomycin
Experimental: Ca^2+-induced swelling (sucrose permeability) in energized mitochondria was assayed at 25° C. in 96 well-plates by measuring changes in absorbance at 540 nm by means of a […]ax 250 spectrophometer controlled by the SOFTmax PRO™ software (Molecular Devices, Switzerland). The incubation medium contained 0.2 M sucrose, 10 mM Tris-Mops, pH 7.4, 1 mM Pi-Tris, 5 μM EGTA. Succinate (5 mM, in the presence of 2 μM rotenone) or 5 mM glutamate/2.5 mM malate, buffered to pH 7.4 with Tris, were used as respiratory substrates. After a short (˜5 min) preincubation in presence or absence of test compounds, mitochondrial swelling was induced by the addition of 20 μl CaCl2 at final concentrations ranging from 40 to 80 μM, depending on respiratory substrates and Ca^2+ sensitivity of the mitochondrial preparation. The final incubation volume was 0.2 ml and the concentration of mitochondria was ˜0.5 mg mitochondrial protein ml^−1. Swelling kinetics was followed for up to 30 min at 25° C. Absorbance readings were taken every 12 sec and the plate was shaken for 3 s between readings to ensure oxygen diffusion during the experiment and to avoid sedimentation of the mitochondria.
The incubation medium contained 0.2 M sucrose, 10 mM Tris-Mops, pH 7.4, 1 mM Pi-Tris, 5 μM EGTA.

[4] = target: T3, human VDAC1 (Homo sapiens, UniProt P21796); test: Affinity labeling of Δpor1 yeast mitochondria expressing human VDAC1; format: binding; settings: Δpor1 strains with plasmid expressing human VDAC1
T3 construct: expressed in transfected cells; host or cells: Δpor1 yeast strain transformed with a human VDAC1 plasmid; isolated mitochondria
T3 sequence (P21796 whole entry): as the sequence (Q9Z2L0 whole entry) above, with N55T, V129M, S160A, V227I counted along it
Text: (§2) To further confirm VDAC1 as the protein target of Spiro[cyclopentane-1,5′-[5H]dibenzo[a,d]cyclohepten]-2-one,10′,11′-dihydro-3-methylene-, the labeling of proteins in mitochondria prepared from yeasts by Spiro[cyclopentane-1,5′-[5H]dibenzo[a,d]cyclohepten]-2-one,10′,11′-t2-10′,11′-dihydro-3-methylene- was investigated. […] Increasing concentration of unlabelled Spiro[cyclopentane-1,5′-[5H]dibenzo[a,d]cyclohepten]-2-one,10′,11′-dihydro-3-methylene-inhibited incorporation of the radioactivity (FIG. 9).

[5] = target: T4, YVDAC1 (Saccharomyces cerevisiae, UniProt P04840); test: Affinity labeling of yeast mitochondria (Δpor1 and Δpor1 expressing YVDAC1); format: binding; settings: Δpor1 strains with plasmid expressing YVDAC1
T4 construct: expressed in transfected cells; host or cells: Δpor1 yeast strain carrying a YVDAC1 plasmid; isolated mitochondria
T4 sequence (P04840 2-283): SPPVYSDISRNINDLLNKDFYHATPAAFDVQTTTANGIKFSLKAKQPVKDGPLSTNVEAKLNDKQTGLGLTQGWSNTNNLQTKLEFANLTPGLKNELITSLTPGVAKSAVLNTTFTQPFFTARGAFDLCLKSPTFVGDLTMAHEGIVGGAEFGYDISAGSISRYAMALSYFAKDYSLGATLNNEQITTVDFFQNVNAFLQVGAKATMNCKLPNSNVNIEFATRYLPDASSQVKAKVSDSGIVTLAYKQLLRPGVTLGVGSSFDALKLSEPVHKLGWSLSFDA
Text: (§3) FIG. 9: Spiro[cyclopentane-1,5′-[5H]dibenzo[a,d]cyclohepten]-2-one,10′,11′-t2-10′,11′-dihydro-3-methylene affinity labeling of yeast mitochondria lacking the por1 gene for YVDAC1 (Δpor1) and into Δpor1 yeast mitochondria transfected with YVDAC1 in presence or absence of different concentrations of Spiro[cyclopentane-1,5′-[5H]dibenzo[a,d]cyclohepten]-2-one,10′,11′-dihydro-3-methylene (unlabeled). The fluorograms of gels after SDS-PAGE are shown. Mitochondria isolated from yeast strains were incubated in the presence of 10 nM Spiro[cyclopentane-1,5′-[5H]dibenzo[a,d]cyclohepten]-2-one,10′,11′-t2-10′,11′-dihydro-3-methylene for 15 min at 25° C. Numbers indicate the concentrations (μM) of the various compounds added.
as §2

[6] = test system: YVDAC1; test: as above; format: binding; settings: Δpor1 strains
Text: as §3, §2

Row | Compound | Additive effect when combined with the spiro compound (Example 2) [1] | Effect on VDAC1 labeling (incorporation of radioactivity) by the tritiated spiro compound ([2]; rat brain mitochondria, 10 nM radiolabel) | EC50 [3] [µM] | Labeling of ~32 kDa protein (VDAC1) ([2]; 10 nM, intact rat brain and liver mitochondria) | Labeling in yeast mitochondria expressing human VDAC1 [4] | Labeling of 29 kDa band in yeast mitochondria [5] | Labeling in yeast mitochondria lacking YVDAC1 [6]
1 | Nc1ncnc2c1ncn2[C@@H]1O[C@H](COP(=O)(O)OP(=O)(O)O)[C@@H](O)[C@H]1O [ADP] | additive | did not affect | 4.8 | – | – | – | –
2 | [3H]C1c2ccccc2C2(CCC(=C)C2=O)c2ccccc2C1[3H] (stereo not shown) [Spiro[cyclopentane-1,5′-[5H]dibenzo[a,d]cyclohepten]-2-one,10′,11′-t2-10′,11′-dihydro-3-methylene-] | – | – | – | predominantly labeled | no dear labeling | prominent labeling | virtually no labeling
